Measured values taken from paper PMC6136360, “Novel group of tyrosyl-DNA-phosphodiesterase 1 inhibitors based on disaccharide nucleosides as drug prototypes for anti-cancer therapy” (Journal of Enzyme Inhibition and Medicinal Chemistry, 2018).

Assays:
[1] = molecular target: T1, TDP1 (Homo sapiens, UniProt Q9NUW8); assay: Steady-state kinetic analysis of TDP1 reaction, single-stranded substrate; assay type: biochemical; conditions: for Ki: Cornish-Bowden method, read-out: Inhibition constant, KI
T1 construct: made in house; host or cells: E. coli
Experimental: (§1) To determine the kinetic parameters: apparent maximum rate of enzymatic reaction (Vmax), Michaelis constant (KM), constant of inhibition (KI), and possible inhibition mechanism, steady-state kinetic experiments were carried out at five fixed concentrations of substrate with variation of inhibitor concentrations. The standard reaction mixtures (200 μl) contained 50 nM, 100 nM, 200 nM, 500 nM or 1000 nM substrate, testable inhibitor, 1.5 nM recombinant human TDP1 and reaction buffer components (50 mM Tris-HCl, pH 8.0, 50 mM NaCl, 7 mM β-mercaptoethanol). After addition of the enzyme, the reaction mixtures were incubated at a constant temperature of 26 °C and measured in a POLARstar OPTIMA fluorimeter, BMG LABTECH, GmbH, to measure fluorescence every 55 s (Ex485/Em520 nm) during the linear phase (data from 0 to 8 min). The initial data (kinetic curves) were obtained in three independent experiments and statistically processed in software OriginPro 8.6.0.
Vmax and KM decrease proportionally (Figure 6(A,B)), which corresponds to the uncompetitive type of inhibition, according to the general equation of the rate of product formation in the Michaelis–Menten kinetics.
(§2) Values of the inhibition constant (KI) were determined using Cornish–Bowden method. Similar experiments were performed for all seven tested inhibitors on two types of DNA substrates, and the results are shown in Table 4.

[2] = molecular target: T1, TDP1; assay: Steady-state kinetic analysis of TDP1 reaction, double-stranded (hairpin) substrate; assay type: biochemical; conditions: for Ki: Cornish-Bowden method, read-out: Inhibition constant, KI
Experimental: as §1, §2

[3] = molecular target: T2, SCAN1 (mutant form of TDP1 with H493R substitution) (Homo sapiens, UniProt Q9NUW8, H493R); assay: Fluorescence real-time assay on mutant TDP1 (SCAN1), single-stranded oligonucleotide; assay type: biochemical
T2 construct: made in house; host or cells: E. coli
Description: The recombinant tyrosyl-DNA phosphodiesterase 1 and the mutant form of TDP1 with substitution (H493R) were expressed in the E. coli system (plasmids pET16B-TDP1 and pET16B-SCAN1 were provided by Dr. K.W. Caldecott, University of Sussex, United Kingdom and by Dr. S. El-Khamisy, University of Sheffield, United Kingdom) and purified according to the previously described technique.
(§3) Conditions and details for our real-time detection of TDP1 activity using the single-stranded and hairpin fluorescent biosensors were reported in our previous work[47]. Briefly, the approach consists in fluorescence intensity measurement of the reaction of quencher removal from the fluorophore-quencher coupled DNA-oligonucleotide catalysed by TDP1 in the presence of inhibitor and in the absence of it (the control samples contained 1% DMSO). Reaction mixtures (200 µl) contained TDP1 buffer (50 mM Tris-HCl, pH 8.0, 50 mM NaCl, 7 mM β-mercaptoethanol), oligonucleotide (50 nM substrate of TDP1), testable inhibitor and purified TDP1 (1.5 nM). The reactions were incubated at a constant temperature of 26 °C in a POLARstar OPTIMA fluorimeter, BMG LABTECH, GmbH, to measure fluorescence every 55 s (Ex485/Em520 nm) during the linear phase (here data from 0 to 8 min). The average values of half maximal inhibitory concentration (IC50) were determined using an eleven-point concentration response curve in three independent experiments and calculated using MARS Data Analysis 2.0 (BMG LABTECH).
The IC50 values obtained by the fluorescence real-time assay on a single-stranded oligonucleotide (section 3.1) were higher than 100 μM.

[4] = tested on: A-549 cell line (adenocarcinomic human alveolar basal epithelial cells); assay: MTT test, cytotoxicity and combination with topotecan, A-549; assay type: cell-based; conditions: A-549 cells; for Synergistic coefficient (SC) with topotecan: MTT, inhibitor in combination with topotecan, SC < 1 indicates synergy; for Effect on cytotoxic effect of topotecan (in words): non-toxic inhibitor concentrations
Experimental: (§4) Tumour cell line A549 (adenocarcinomic human alveolar basal epithelial cells) and noncancerous cell line WI-38 (fibroblasts derived from lung tissue of a 3 months gestation […] fetus) were used in cell-based experiments to determine the cytotoxicity of inhibitors and their effect on antitumour drug topotecan using standard MTT test[48]. Cells were incubated in Iscove’s Modified Dulbecco’s Medium (IMDM) supplemented with 10% fetal bovine serum and 40 µg/ml gentamicin, 10 U/ml penicillin, […], 0.25 µg/ml amphotericin at 37 °C and 5% CO2 for 24 h in a CO2 incubator; the optical density of the final solution was measured in the wells of the microplate at 570 nm and 620 nm wavelengths using a MultiScan FC (Thermo Scientific) microplate reader.
(§5) To study the effect of inhibitors on the cytotoxic effect of a well-known antitumour drug, the topotecan of the manufacturer “ACTAVIS GROUP PTC ehf.” was used. First of all, the 50% cytotoxic concentration (CC50) for topotecan and each inhibitor were determined to produce a defined single-agent effect. Second, three independent MTT-tests were performed with each inhibitor in combination with topotecan. Then, the synergistic coefficient (SC) was calculated according to the following formula (2)[49]: (2) SC= CC50 tpc,(+I)/CC50 tpc+CC50 I, (+tpc)/CC50 I,
(§6) CC50 tpc,(+I) and CC50 I,(+tpc) are the concentrations of topotecan and inhibitor used in combination to achieve 50% drug effect. CC50 tpc and CC50 I are the concentrations for single agents to achieve the same effect. SC values of less than, equal to, or more than 1 indicates synergy, additivity, and antagonism, respectively. The results were calculated and statistically processed in Microsoft Excel.

[5] = tested on: WI-38 cell line (noncancerous fibroblasts derived from lung tissue); assay: MTT test, cytotoxicity and combination with topotecan, WI-38; assay type: cell-based, human; conditions: WI-38 non-cancerous cell line
Experimental: as §4, §5, §6

[6] = molecular target: T1, TDP1; assay: Fluorescence anisotropy assay of TDP1-DNA substrate complex; assay type: binding; conditions: 3 nM single-strand oligonucleotide without quencher, 50 nM TDP1
Experimental: Fluorescence anisotropy was measured by using a fluorescent single-strand DNA-oligonucleotide (3 nM) without quencher at the 3′-end in the presence of the inhibitor in different concentrations (Fluorescein control, CFlu = 10^−9 M). Reaction mixtures (200 µl) contained TDP1 buffer (50 mM Tris-HCl, pH 8.0, 50 mM NaCl, 7 mM β-mercaptoethanol), a single-strand DNA-oligonucleotide without quencher (3 nM substrate of TDP1), a testable inhibitor and the purified TDP1 (50 nM). The reactions were incubated at a constant temperature of 26 °C in a POLARstar OPTIMA fluorimeter, BMG LABTECH, GmbH, to measure fluorescence anisotropy every 55 s (Ex482/Em530 nm) during the linear phase (from 0 to 8 min) in two independent experiments.
Fluorescence anisotropy (r) was calculated by using the Equation (1): (1) r = (III–I⊥)/(III+ 2I⊥)
The dependence of the anisotropy on the concentration of the inhibitor was determined using a six-point response curve in two independent experiments and calculated using MARS Data Analysis 2.0 (BMG LABTECH).
To obtain some information about interaction of disaccharide nucleosides with TDP1, anisotropy of the fluorescent DNA substrate was measured. We used single-stranded oligonucleotide without a quencher at the 3′-end in the presence of testable inhibitors at different concentrations.

[7] = molecular target: T1, TDP1; assay: Real-time fluorescence detection of TDP1 activity, single-stranded FAM/BHQ biosensor; assay type: biochemical; conditions: for Inhibitory effect on TDP1 activity (in words): single-stranded fluorescent biosensor, primary screening; for IC50: single-stranded fluorescent biosensor 50 nM, TDP1 1.5 nM, 26 °C, read-out: IC50 (half-maximal inhibitory concentration) of TDP1 activity
Experimental: as §3
To discover inhibitors of TDP1 we recently developed original single-stranded and hairpin fluorophore–quencher coupled DNA-biosensors for real-time measurement of TDP1 cleavage activity. The single-stranded substrate is a 16-mer oligonucleotide containing both 5′-FAM fluorophore donor and a quenching 3′-BHQ moiety (Figure 1(A)). When the quencher is removed by TDP1, the fluorescence intensity increases and can be measured by fluorimeter (TDP1 catalysed reaction on biosensor is shown in Figure 3(A). Fluorescence intensity declines in the presence of inhibitor, the resulting curves of the dependence of TDP1 residual activity as a function of the concentration of inhibitors were obtained using 4-parameter logistic regression fit, which was used to calculate IC50 values[47]^,[58].
For primary screening, the effect of a large group of disaccharide nucleosides and their hydrophobic derivatives on human recombinant TDP1 activity has been evaluated by fluorescent method on a single-stranded substrate described above.

[8] = Water solubility (qualitative); assay type: physicochemical

T1 sequence (Q9NUW8 whole entry): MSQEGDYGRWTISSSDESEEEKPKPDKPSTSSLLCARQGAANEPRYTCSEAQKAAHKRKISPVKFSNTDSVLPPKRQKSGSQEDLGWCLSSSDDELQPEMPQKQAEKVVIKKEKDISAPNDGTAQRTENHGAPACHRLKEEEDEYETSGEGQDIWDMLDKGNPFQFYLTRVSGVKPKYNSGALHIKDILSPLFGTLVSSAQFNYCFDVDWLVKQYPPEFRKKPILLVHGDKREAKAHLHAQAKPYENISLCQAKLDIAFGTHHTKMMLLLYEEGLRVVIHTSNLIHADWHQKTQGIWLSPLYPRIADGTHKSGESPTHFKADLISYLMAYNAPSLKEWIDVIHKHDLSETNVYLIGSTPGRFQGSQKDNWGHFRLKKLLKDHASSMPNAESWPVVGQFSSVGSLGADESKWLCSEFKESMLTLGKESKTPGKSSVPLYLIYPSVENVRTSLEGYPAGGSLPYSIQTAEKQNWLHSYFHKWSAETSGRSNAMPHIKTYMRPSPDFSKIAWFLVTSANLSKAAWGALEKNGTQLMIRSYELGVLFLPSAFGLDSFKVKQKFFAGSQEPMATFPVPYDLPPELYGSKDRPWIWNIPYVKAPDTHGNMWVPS
T2 sequence (Q9NUW8 whole entry H493R): as the sequence (Q9NUW8 whole entry) above, with H493R counted along it

Type of inhibition [1] | Ki [1] [nM] | Type of inhibition [2] | Ki [2] [nM] | IC50 [3] [nM] | Change of fluorescence anisotropy with inhibitor concentration [6] | Inhibitory effect on TDP1 activity (in words) [7] | Water solubility (in words) [8] | IC50 [7] [nM] | SMILES | Synergistic coefficient (SC) with topotecan [4] | Effect on cytotoxic effect of topotecan (in words) [4] | Synergy with topotecan (in words) [5]
Mixed | 1700 ± 400 | Mixed | 3100 ± 300 | > 100000 | significant decrease in the anisotropy |  |  |  | CC(C)C(=O)Nc1nc2c(ncn2[C@@H]2O[C@H](CO)[C@@H](O)[C@H]2O[C@@H]2O[C@H](COC(=O)c3ccccc3)[C@@H](OC(=O)c3ccccc3)[C@H]2OC(=O)c2ccccc2)c(=O)[nH]1 [Compound 10] | less than or equal to 0.7 | significant increase of cytotoxic effect of topotecan | demonstrated synergy with topotecan
Mixed | 300 ± 200 | Mixed | 400 ± 300 | > 100000 | significant decrease in the anisotropy |  |  |  | CC(C)[Si]1(C(C)C)OC[C@H]2O[C@@H](n3ccc(=O)[nH]c3=O)[C@H](O[C@@H]3O[C@H](COC(=O)c4ccccc4)[C@@H](OC(=O)c4ccccc4)[C@H]3OC(=O)c3ccccc3)[C@@H]2O[Si](C(C)C)(C(C)C)O1 [Compound 21] | less than or equal to 0.7 | significant increase of cytotoxic effect of topotecan | demonstrated synergy with topotecan
Mixed | 900 ± 300 | Mixed | 300 ± 100 | > 100000 | significant decrease in the anisotropy |  |  |  | Cc1cn([C@@H]2O[C@@H]3CO[Si](C(C)C)(C(C)C)O[Si](C(C)C)(C(C)C)O[C@H]3[C@H]2O[C@@H]2O[C@H](COC(=O)c3ccccc3)[C@@H](OC(=O)c3ccccc3)[C@H]2OC(=O)c2ccccc2)c(=O)[nH]c1=O [Compound 7] | less than or equal to 0.7 | significant increase of cytotoxic effect of topotecan | 
 |  |  |  |  |  | not active at all | water-soluble |  | Nc1nc2c(ncn2[C@@H]2O[C@H](CO)[C@@H](O)[C@H]2O[C@@H]2O[C@H](COP(=O)([O-])[O-])[C@@H](O)[C@H]2O)c(=O)[nH]1.[Na+].[Na+] [Compound 9] |  |  | 
Mixed | 200 ± 100 | Mixed | 300 ± 200 | > 100000 | significant decrease in the anisotropy |  |  |  | CC(C)C(=O)Nc1nc2c(ncn2[C@@H]2O[C@@H]3CO[Si](C(C)C)(C(C)C)O[Si](C(C)C)(C(C)C)O[C@H]3[C@H]2O[C@@H]2O[C@H](COC(=O)c3ccccc3)[C@@H](OC(=O)c3ccccc3)[C@H]2OC(=O)c2ccccc2)c(=O)[nH]1 [Compound 11] |  | significant increase of cytotoxic effect of topotecan | 
Noncompetitive | 7900 ± 800 | Noncompetitive | 8800 ± 900 | > 100000 | anisotropy remained unchanged |  | high water solubility | 18500 ± 800 | Cc1cn([C@@H]2O[C@H](COP(=O)([O-])[O-])[C@@H](O)[C@H]2O[C@@H]2O[C@H](CO)[C@@H](O)[C@H]2O)c(=O)[nH]c1=O.[Na+].[Na+] [Compound 6] |  | significant increase of cytotoxic effect of topotecan | 
Mixed | 300 ± 100 | Mixed | 200 ± 100 | > 100000 | significant decrease in the anisotropy |  |  | 1300 ± 200 | CC(C)[Si]1(C(C)C)OC[C@H]2O[C@@H](n3cnc4c(NC(=O)c5ccccc5)ncnc43)[C@H](O[C@@H]3O[C@H](COC(=O)c4ccccc4)[C@@H](OC(=O)c4ccccc4)[C@H]3OC(=O)c3ccccc3)[C@@H]2O[Si](C(C)C)(C(C)C)O1 [Compound 4] | less than or equal to 0.7 | significant increase of cytotoxic effect of topotecan | 
 |  |  |  |  |  | low inhibitory effect | water-soluble |  | Nc1ncnc2c1ncn2[C@@H]1O[C@H](CO)[C@@H](O)[C@H]1O[C@@H]1O[C@H](COP(=O)([O-])[O-])[C@@H](O)[C@H]1O.[Na+].[Na+] [Compound 3] |  |  | 
